# Source: patent US20240228535A1 (priority 2022, published 2024)
# Target: SARS2 coronavirus 3CL protease (Severe acute respiratory syndrome coronavirus 2, UniProt P0DTD1)
# Assay: biochemical
# Details: 5 nM enzyme, 30 min pre-incubation with compound, 15 μM peptide substrate, 4 h at room temperature; read-out: FRET Potency (nM); IC50 values in the SARS2 3CLPro FRET assay
row,SMILES,IC50 [nM]
1,"C[C@@H]1C[C@@H](C[C@H](NC(=O)c2cc(F)ccc2NC(=O)c2cccc(C(F)(F)F)c2)C(=O)C(=O)NC2CC2)C(=O)N1 [Example 78, N-[(1S)-3-(cyclopropylamino)-1-[[(3S,5R)-5-methyl-2-oxo-pyrrolidin-3-yl]methyl]-2,3-dioxo-propyl]-5-fluoro-2-[[3-(trifluoromethyl)benzoyl]amino]benzamide]",4.6
2,O=C(NC1CC1)C(=O)[C@H](C[C@@H]1CCNC1=O)NC(=O)c1cc(Cl)c(F)cc1NC(=O)c1cncc(C(F)(F)F)c1 [Example 79],11.3
3,"C[C@@H]1C[C@@H](C[C@H](NC(=O)c2cc(Cl)cc(Cl)c2NC(=O)C23CC(F)(C2)C3)C(=O)C(=O)NC2CC2)C(=O)N1 [Example 80, N-[2,4-dichloro-6-[[(1S)-3-(cyclopropylamino)-1-[[(3S,5R)-5-methyl-2-oxo-pyrrolidin-3-yl]methyl]-2,3-dioxo-propyl]carbamoyl]phenyl]-3-fluoro-bicyclo[1.1.1]pentane-1-carboxamide]",21.6
4,"CNC(=O)C(=O)[C@H](C[C@@H]1CCNC1=O)NC(=O)c1cc(Cl)ccc1NC(=O)C1(C(F)(F)F)CC1 [Example 81, 5-chloro-N-[(1S)-3-(methylamino)-2,3-dioxo-1-[[(3S)-2-oxopyrrolidin-3-yl]methyl]propyl]-2-[[1-(trifluoromethyl)cyclopropane-carbonyl]amino]benzamide]",15.9
5,"C[C@@H]1C[C@@H](C[C@H](NC(=O)c2cc(Cl)ccc2NC(=O)C2CC23CC3)C(=O)C(=O)NC2CC2)C(=O)N1 (stereo partly drawn) [Example 82, N-[4-chloro-2-[[(1S)-3-(cyclopropylamino)-1-[[(3S,5R)-5-methyl-2-oxo-pyrrolidin-3-yl]methyl]-2,3-dioxo-propyl]carbamoyl]phenyl] spiro[2.2]pentane-2-carboxamide]",10.8
6,"C[C@@H]1C[C@@H](C[C@H](NC(=O)c2cc(Cl)ccc2NC(=O)C2CC23CC3)C(=O)C(=O)NC2CC2)C(=O)N1 (stereo partly drawn) [Example 83, N-[4-chloro-2-[[(1S)-3-(cyclopropylamino)-1-[[(3S,5R)-5-methyl-2-oxo-pyrrolidin-3-yl]methyl]-2,3-dioxo-propyl]carbamoyl]phenyl] spiro[2.2]pentane-2-carboxamide]",10.5
7,"C[C@@H]1C[C@@H](C[C@H](NC(=O)c2cc(Cl)ccc2NC(=O)C2CC2C(F)(F)F)C(=O)C(=O)NC2CC2)C(=O)N1 (stereo partly drawn) [Example 84, 5-chloro-N-[(1S)-3-(cyclopropylamino)-1-[[(3S,5R)-5-methyl-2-oxo-pyrrolidin-3-yl]methyl]-2,3-dioxo-propyl]-2-[[2-(trifluoromethyl)cyclopropane-carbonyl]amino]benzamide]",20.6
8,"C[C@@H]1C[C@@H](C[C@H](NC(=O)c2cc(Cl)ccc2NC(=O)C2CC2C(F)(F)F)C(=O)C(=O)NC2CC2)C(=O)N1 (stereo partly drawn) [Example 85, 5-chloro-N-[(1S)-3-(cyclopropylamino)-1-[[(3S,5R)-5-methyl-2-oxo-pyrrolidin-3-yl]methyl]-2,3-dioxo-propyl]-2-[[2-(trifluoromethyl)cyclopropane-carbonyl]amino]benzamide]",15.2
9,"C[C@@H]1C[C@@H](C[C@H](NC(=O)c2cc(Cl)ccc2NC(=O)c2cc(C(F)(F)F)ccn2)C(=O)C(=O)NC2CC2)C(=O)N1 [Example 86, N-[4-chloro-2-[[(1S)-3-(cyclopropylamino)-1-[[(3S,5R)-5-methyl-2-oxo-pyrrolidin-3-yl]methyl]-2,3-dioxo-propyl]carbamoyl]phenyl]-4-(trifluoromethyl)pyridine-2-carboxamide]",6.8
10,C[C@@H]1C[C@@H](C[C@H](NC(=O)c2cc(Cl)c(F)cc2NC(=O)c2ccnc(C(F)(F)F)c2)C(=O)C(=O)NC2CC2)C(=O)N1 [Example 87],6.6
11,"CNC(=O)C(=O)C(CC1C[C@@H](C(F)(F)F)NC1=O)NC(=O)c1cc(C#N)ccc1NC(=O)CCC(F)(F)F (stereo partly drawn) [Example 88, 5-cyano-N-[3-(methylamino)-2,3-dioxo-1-[[(5S)-2-oxo-5-(trifluoromethyl)pyrrolidin-3-yl]methyl]propyl]-2-(4,4,4-trifluorobutanoylamino) benzamide]",114
12,"CC(C(=O)Nc1ccc(Cl)cc1C(=O)N[C@@H](C[C@@H]1C[C@@H](C)NC1=O)C(=O)C(=O)NC1CC1)c1cscn1 (stereo partly drawn) [Example 89, 5-chloro-N-[(1S)-3-(cyclopropylamino)-1-[[(3S,5R)-5-methyl-2-oxo-pyrrolidin-3-yl]methyl]-2,3-dioxo-propyl]-2-(2-thiazol-4-ylpropanoylamino)benzamide]",10.1
13,CNC(=O)C(=O)[C@H](C[C@@H]1CCNC1=O)NC(=O)c1cc(Cl)ccc1NC(=O)c1ccnc(C(F)(F)F)c1 [Example 90],12.3
14,"CNC(=O)C(=O)[C@H](C[C@@H]1C[C@@H](C)NC1=O)NC(=O)c1cc(Cl)ccc1NC(=O)c1cncc(C(F)(F)F)c1 [Example 91, N-[4-chloro-2-[[(1S)-3-(methylamino)-1-[[(3S,5R)-5-methyl-2-oxo-pyrrolidin-3-yl]methyl]-2,3-dioxo-propyl]carbamoyl]phenyl]-5-(trifluoromethyl)pyridine-3-carboxamide]",6.1
15,"C[C@@H]1C[C@@H](C[C@H](NC(=O)c2cc(Cl)ccc2NC(=O)c2ccnc(C(F)F)c2)C(=O)C(=O)NC2CC2)C(=O)N1 [Example 92, N-[4-chloro-2-[[(1S)-3-(cyclopropylamino)-1-[[(3S,5R)-5-methyl-2-oxo-pyrrolidin-3-yl]methyl]-2,3-dioxo-propyl]carbamoyl]phenyl]-2-(difluoromethyl)pyridine-4-carboxamide]",9
16,"CC(C(=O)Nc1ccc(Cl)cc1C(=O)N[C@@H](C[C@@H]1C[C@@H](C)NC1=O)C(=O)C(=O)NC1CC1)c1cscn1 (stereo partly drawn) [Example 93, 5-chloro-N-[(1S)-3-(cyclopropylamino)-1-[[(3S,5R)-5-methyl-2-oxo-pyrrolidin-3-yl]methyl]-2,3-dioxo-propyl]-2-(2-thiazol-4-ylpropanoylamino)benzamide]",12.6
17,"C[C@@H]1C[C@@H](C[C@H](NC(=O)c2cc(Cl)ccc2NC(=O)c2cncc(C(F)(F)F)c2)C(=O)C(=O)NC2CC2)C(=O)N1 [Example 94, N-[4-chloro-2-[[(1S)-3-(cyclopropylamino)-1-[[(3S,5R)-5-methyl-2-oxo-pyrrolidin-3-yl]methyl]-2,3-dioxo-propyl]carbamoyl]phenyl]-5-(trifluoromethyl)pyridine-3-carboxamide]",10.6
18,"CNC(=O)C(=O)[C@H](C[C@@H]1CCNC1=O)NC(=O)c1cc(C(F)(F)F)ccc1NC(=O)C1(C(F)(F)F)CC1 [Example 95, N-[(1S)-3-(methylamino)-2,3-dioxo-1-[[(3S)-2-oxopyrrolidin-3-yl]methyl]propyl]-5-(trifluoromethyl)-2-[[1-(trifluoromethyl)cyclopropane-carbonyl]amino]benzamide]",44.7
19,"CC(C)OC(=O)Nc1ccc(Cl)cc1C(=O)N[C@@H](C[C@@H]1CCNC1=O)C(=O)C(=O)NC1CC1 [Example 96, isopropyl N-[4-chloro-2-[[(1S)-3-(cyclopropylamino)-2,3-dioxo-1-[[(3S)-2-oxopyrrolidin-3-yl]methyl]propyl]carbamoyl]phenyl]carbamate]",6
